Patent publication US20150289514A1 (priority 2012, published 2015)

Key:
Format in all cases: in vivo
Alternaria solani = experiment: Alternaria test (tomatoes)/preventive; conditions: preventive spray, evaluated 3 days after inoculation
Phytophthora infestans = conditions: tomatoes, preventive spray, 1 ppm a.i., evaluated 3 days after inoculation
Venturia inaequalis = experiment: Venturia test (apples)/preventive; conditions: preventive spray, evaluated 10 days after inoculation

Row | Structure (SMILES) | Efficacy in % found (Alternaria solani; 1 ppm a.i.) [%] | Efficacy in % found (Phytophthora infestans) [%] | Efficacy in % found (Alternaria solani; 0.5 ppm a.i.) [%] | Efficacy in % found (Venturia inaequalis; 1 ppm a.i.) [%] | Efficacy in % found (Venturia inaequalis; 0.25 ppm a.i.) [%]
1 | CO/C=C(/C(=O)OC)c1ccccc1Oc1cc(Oc2ccccc2C#N)ncn1 [F107, azoxystrobin] | 39 | 61 | – | – | –
2 | CSC1=N[C@@](C)(c2ccccc2)C(=O)N1Nc1ccccc1 [F114, fenamidone] | – | 37 | – | – | –
3 | COC(=O)N(OC)c1ccccc1COc1ccn(-c2ccc(Cl)cc2)n1 [F121, pyraclostrobin] | – | – | 30 | 65 | –
4 | CON=C(C(=O)OC)c1ccccc1CON=C(C)c1cccc(C(F)(F)F)c1 [F126, trifloxystrobin] | 38 | – | – | – | 60
